Reference: ChEMBL document CHEMBL3991601, “The target landscape of clinical kinase drugs” (Science, 2017)
Active and inactive are the calls of the source. Rule as the data show it, for most assays here: actives have a measured Kd and inactives only a lower limit.

Columns and labels:
[1] = target: T1, Calcium/calmodulin-dependent protein kinase type IV (Homo sapiens, UniProt Q16566)
T1 sequence (Q16566 whole entry): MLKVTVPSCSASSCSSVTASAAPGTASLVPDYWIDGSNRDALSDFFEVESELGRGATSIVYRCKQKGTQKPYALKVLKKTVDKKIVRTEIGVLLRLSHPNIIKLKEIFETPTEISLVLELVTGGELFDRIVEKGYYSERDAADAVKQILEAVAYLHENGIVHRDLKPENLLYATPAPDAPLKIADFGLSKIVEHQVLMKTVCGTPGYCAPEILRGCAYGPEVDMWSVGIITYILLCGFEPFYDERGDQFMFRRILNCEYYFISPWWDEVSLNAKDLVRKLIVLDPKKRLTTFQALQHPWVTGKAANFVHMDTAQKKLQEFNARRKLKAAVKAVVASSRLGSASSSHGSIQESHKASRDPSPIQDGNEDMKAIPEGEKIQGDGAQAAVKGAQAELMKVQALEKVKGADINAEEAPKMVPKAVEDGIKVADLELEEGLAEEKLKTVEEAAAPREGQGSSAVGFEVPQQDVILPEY

[2] = target: T2, Uncharacterized protein FLJ45252 (Homo sapiens, UniProt Q6ZSR9); conditions: read-out: Kd apparent; k-562, colo 205, sk-n-be(2) and mv-4-11
T2 sequence (Q6ZSR9 whole entry): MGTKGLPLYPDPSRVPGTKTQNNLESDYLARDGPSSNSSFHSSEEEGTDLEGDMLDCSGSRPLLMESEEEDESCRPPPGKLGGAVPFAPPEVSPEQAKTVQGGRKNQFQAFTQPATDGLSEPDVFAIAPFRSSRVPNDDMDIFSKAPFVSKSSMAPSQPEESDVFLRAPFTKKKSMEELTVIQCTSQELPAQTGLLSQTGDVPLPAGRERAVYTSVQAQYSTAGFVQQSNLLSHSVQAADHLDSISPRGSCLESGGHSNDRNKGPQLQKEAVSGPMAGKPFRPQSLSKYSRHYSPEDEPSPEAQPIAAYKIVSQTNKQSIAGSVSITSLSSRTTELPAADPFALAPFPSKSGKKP

[3] = target: Tyrosine-protein kinase Lck (Homo sapiens, UniProt P06239)
Sequence of Tyrosine-protein kinase Lck (P06239 whole entry): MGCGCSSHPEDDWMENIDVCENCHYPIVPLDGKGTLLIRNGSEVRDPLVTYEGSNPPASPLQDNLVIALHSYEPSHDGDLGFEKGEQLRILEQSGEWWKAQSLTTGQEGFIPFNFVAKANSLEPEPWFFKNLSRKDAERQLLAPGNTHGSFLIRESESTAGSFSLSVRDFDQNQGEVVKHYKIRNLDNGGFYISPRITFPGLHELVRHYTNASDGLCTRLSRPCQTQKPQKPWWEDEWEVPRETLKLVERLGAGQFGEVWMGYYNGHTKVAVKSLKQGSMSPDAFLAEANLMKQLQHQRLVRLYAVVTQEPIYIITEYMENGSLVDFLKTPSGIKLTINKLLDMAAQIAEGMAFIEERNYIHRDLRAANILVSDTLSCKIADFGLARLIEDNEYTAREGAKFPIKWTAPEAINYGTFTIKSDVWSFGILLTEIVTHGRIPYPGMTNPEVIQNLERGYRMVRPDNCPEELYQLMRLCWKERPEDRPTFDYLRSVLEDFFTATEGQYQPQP

[4] = target: Cyclin-dependent kinase 7 (Homo sapiens, UniProt P50613)
Sequence of Cyclin-dependent kinase 7 (P50613 whole entry): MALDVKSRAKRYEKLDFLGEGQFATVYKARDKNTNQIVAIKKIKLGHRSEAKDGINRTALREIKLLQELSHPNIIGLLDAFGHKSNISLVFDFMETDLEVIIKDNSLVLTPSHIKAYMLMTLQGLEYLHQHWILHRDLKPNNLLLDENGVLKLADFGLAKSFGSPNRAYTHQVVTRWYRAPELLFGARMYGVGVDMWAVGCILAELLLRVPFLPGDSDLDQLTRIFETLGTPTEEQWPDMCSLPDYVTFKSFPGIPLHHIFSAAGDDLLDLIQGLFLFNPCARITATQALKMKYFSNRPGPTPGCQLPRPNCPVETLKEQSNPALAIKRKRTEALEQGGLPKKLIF

[5] = target: T3, Ras-related protein Rab-27A (Homo sapiens, UniProt P51159)
T3 sequence (P51159 whole entry): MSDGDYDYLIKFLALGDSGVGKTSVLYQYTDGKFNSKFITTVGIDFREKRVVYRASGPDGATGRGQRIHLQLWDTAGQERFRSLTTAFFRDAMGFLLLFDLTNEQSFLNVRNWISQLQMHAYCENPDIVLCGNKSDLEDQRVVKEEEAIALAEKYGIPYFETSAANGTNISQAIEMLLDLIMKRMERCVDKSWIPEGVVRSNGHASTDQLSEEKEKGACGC

[6] = target: Dual specificity protein kinase CLK2 (Homo sapiens, UniProt P49760)
Sequence of Dual specificity protein kinase CLK2 (P49760 whole entry): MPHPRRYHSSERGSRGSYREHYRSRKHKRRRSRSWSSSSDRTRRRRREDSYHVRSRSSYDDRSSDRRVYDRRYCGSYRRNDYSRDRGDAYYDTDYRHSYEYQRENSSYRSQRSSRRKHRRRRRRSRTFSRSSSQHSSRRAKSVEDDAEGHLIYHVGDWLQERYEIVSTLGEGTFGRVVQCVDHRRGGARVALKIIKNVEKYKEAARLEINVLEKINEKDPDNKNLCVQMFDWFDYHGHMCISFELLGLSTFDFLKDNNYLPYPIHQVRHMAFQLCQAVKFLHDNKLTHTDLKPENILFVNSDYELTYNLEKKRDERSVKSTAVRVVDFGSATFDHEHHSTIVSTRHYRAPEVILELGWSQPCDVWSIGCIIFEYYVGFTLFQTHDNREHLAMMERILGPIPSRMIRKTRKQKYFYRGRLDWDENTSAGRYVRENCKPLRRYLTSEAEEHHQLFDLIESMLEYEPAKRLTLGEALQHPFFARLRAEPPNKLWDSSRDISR

[7] = target: Ribosomal protein S6 kinase alpha-3 (Homo sapiens, UniProt P51812)
Sequence of Ribosomal protein S6 kinase alpha-3 (P51812 whole entry): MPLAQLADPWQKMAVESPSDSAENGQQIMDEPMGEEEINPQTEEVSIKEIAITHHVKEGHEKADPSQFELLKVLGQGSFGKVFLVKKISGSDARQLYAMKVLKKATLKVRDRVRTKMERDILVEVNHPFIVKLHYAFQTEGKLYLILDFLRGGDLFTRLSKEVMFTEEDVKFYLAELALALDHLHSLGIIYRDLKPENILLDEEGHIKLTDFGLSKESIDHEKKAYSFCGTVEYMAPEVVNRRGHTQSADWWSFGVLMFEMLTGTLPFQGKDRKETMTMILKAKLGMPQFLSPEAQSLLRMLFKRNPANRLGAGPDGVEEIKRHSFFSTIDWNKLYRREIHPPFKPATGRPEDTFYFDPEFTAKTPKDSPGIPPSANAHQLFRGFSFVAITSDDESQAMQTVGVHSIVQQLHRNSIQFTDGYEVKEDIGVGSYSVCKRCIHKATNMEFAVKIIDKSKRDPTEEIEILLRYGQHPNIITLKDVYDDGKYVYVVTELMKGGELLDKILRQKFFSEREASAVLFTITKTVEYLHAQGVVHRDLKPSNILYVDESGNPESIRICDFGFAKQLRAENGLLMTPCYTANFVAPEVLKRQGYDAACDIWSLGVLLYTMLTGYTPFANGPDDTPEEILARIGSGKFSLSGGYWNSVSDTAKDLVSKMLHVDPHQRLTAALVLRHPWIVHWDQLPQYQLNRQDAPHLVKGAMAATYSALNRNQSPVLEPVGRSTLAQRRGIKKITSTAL

[8] = target: T4, NUAK family SNF1-like kinase 2 (Homo sapiens, UniProt Q9H093)
T4 sequence (Q9H093 whole entry): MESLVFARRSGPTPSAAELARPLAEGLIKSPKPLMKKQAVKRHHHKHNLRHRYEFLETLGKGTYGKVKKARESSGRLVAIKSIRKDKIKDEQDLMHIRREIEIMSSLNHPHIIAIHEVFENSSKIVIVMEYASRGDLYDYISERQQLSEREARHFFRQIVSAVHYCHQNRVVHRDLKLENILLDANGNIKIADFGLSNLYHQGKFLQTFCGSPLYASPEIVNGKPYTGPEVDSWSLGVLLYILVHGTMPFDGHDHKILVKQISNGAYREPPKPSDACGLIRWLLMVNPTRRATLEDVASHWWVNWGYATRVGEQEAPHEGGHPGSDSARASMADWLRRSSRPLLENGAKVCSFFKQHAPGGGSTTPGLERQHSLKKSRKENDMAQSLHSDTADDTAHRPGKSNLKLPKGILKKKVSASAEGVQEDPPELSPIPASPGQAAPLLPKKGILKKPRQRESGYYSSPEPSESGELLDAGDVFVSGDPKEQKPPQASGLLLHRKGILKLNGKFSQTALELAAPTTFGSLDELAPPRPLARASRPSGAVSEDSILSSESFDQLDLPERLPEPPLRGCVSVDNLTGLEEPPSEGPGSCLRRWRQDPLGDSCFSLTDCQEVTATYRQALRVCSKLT

[9] = target: T5, Peroxisomal acyl-coenzyme A oxidase 1 (Homo sapiens, UniProt Q15067)
T5 sequence (Q15067 whole entry): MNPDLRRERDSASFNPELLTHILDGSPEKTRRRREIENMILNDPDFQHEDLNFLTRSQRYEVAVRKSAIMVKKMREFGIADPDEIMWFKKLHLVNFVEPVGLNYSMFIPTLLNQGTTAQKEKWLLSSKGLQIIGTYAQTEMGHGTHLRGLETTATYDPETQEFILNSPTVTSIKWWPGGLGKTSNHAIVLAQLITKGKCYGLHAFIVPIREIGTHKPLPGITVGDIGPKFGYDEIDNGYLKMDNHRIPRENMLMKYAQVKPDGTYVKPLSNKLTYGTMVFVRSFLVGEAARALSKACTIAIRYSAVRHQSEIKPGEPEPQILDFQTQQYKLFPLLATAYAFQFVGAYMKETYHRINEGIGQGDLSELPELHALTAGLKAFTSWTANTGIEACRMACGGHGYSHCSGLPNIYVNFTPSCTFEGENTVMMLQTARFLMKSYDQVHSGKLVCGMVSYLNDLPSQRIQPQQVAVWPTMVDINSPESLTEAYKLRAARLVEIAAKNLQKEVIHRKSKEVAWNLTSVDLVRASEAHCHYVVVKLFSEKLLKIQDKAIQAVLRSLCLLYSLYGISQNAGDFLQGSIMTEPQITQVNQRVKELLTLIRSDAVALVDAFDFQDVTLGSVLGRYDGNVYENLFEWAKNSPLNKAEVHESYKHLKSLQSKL

Insulin receptor = Insulin receptor (Homo sapiens, UniProt P06213)
Sequence of Insulin receptor (P06213 28-758 limits assumed): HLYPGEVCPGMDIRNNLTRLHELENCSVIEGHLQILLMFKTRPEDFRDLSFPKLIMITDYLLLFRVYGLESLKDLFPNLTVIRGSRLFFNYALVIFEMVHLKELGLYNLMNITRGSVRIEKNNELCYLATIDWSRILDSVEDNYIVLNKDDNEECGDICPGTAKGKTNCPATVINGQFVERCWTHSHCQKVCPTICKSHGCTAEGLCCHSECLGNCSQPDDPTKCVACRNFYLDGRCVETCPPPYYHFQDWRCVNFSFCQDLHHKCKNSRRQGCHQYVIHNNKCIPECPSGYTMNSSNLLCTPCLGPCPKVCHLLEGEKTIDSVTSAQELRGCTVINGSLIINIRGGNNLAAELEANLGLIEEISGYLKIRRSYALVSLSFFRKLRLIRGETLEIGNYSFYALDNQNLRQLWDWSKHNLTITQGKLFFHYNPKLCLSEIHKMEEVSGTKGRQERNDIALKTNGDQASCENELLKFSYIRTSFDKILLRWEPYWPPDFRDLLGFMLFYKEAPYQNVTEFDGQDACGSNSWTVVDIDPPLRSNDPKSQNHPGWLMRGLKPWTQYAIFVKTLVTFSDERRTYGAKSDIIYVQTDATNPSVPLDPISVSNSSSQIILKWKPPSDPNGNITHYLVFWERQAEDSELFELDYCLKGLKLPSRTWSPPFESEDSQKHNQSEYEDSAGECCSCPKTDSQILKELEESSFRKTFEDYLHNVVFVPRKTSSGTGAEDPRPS
Sequence of Insulin receptor (P06213 763-1382 limits assumed): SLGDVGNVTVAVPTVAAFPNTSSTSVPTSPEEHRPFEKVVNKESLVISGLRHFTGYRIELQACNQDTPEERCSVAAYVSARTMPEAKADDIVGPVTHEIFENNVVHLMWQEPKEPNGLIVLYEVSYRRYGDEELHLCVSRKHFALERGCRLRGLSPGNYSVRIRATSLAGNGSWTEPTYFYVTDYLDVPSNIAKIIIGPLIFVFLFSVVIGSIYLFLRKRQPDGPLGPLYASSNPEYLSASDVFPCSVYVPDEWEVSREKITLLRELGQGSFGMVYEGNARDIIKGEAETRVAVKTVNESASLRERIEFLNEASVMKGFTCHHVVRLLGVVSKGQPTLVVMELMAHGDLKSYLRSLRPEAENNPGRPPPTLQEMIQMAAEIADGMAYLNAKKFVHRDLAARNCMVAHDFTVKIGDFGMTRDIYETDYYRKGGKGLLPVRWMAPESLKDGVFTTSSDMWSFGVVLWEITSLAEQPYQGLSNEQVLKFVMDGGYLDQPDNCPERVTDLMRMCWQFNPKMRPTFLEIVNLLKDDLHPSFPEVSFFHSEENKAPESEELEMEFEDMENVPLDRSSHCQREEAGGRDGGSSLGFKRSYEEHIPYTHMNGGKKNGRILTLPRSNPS
Also: in the data inactive means no Kd found up to 30 µM.

## COCc1c(-c2ccc(NC(=O)Nc3cc(C(F)(F)F)ccc3F)c(F)c2)c2c(N)ncnn2c1CN1CCOCC1
[1]
  Kd: > 30 µM (inactive)
[2]
  Kd: > 30 µM (inactive)
[3]
  Kd: > 30 µM (inactive)
[4]
  Kd: > 30 µM (inactive)
[5]
  Kd: > 30 µM (inactive)
[6]
  Kd: > 30 µM (inactive)
[7]
  Kd: 5.31 µM (active)
[8]
  Kd: > 30 µM (inactive)
[9]
  Kd: > 30 µM (inactive)
Insulin receptor
  Kd: > 30 µM (inactive)

## Cc1nc(NC(=O)N2CCC[C@H]2C(N)=O)sc1-c1ccnc(C(C)(C)C(F)(F)F)c1 [ALPELISIB]
[2]
  Kd: > 30 µM (inactive)
[3]
  Kd: > 30 µM (inactive)
[4]
  Kd: > 30 µM (inactive)
[6]
  Kd: > 30 µM (inactive)
[7]
  Kd: > 30 µM (inactive)
[8]
  Kd: > 30 µM (inactive)
[9]
  Kd: > 30 µM (inactive)
Insulin receptor
  Kd: > 30 µM (inactive)

## O=C(Nc1c[nH]nc1-c1nc2cc(CN3CCOCC3)ccc2[nH]1)NC1CC1 [AT-9283]
[1]
  Kd: > 30 µM (inactive)
[2]
  Kd: 0.024 µM (active)
[3]
  Kd: 0.89 µM (active)
[4]
  Kd: > 30 µM (inactive)
[5]
  Kd: > 30 µM (inactive)
[6]
  Kd: > 30 µM (inactive)
[8]
  Kd: > 30 µM (inactive)
[9]
  Kd: > 30 µM (inactive)
Insulin receptor
  Kd: > 30 µM (inactive)

## C=CC(=O)Nc1cc2c(Nc3ccc(F)c(Cl)c3)ncnc2cc1C#CC(C)(C)N1CCN(C)CC1 [AV-412 FREE BASE]
[2]
  Kd: > 30 µM (inactive)
[3]
  Kd: > 30 µM (inactive)
[4]
  Kd: > 30 µM (inactive)
[5]
  Kd: > 30 µM (inactive)
[6]
  Kd: > 30 µM (inactive)
[7]
  Kd: > 30 µM (inactive)
[8]
  Kd: > 30 µM (inactive)
[9]
  Kd: > 30 µM (inactive)
Insulin receptor
  Kd: > 30 µM (inactive)

## NC(=O)Nc1cc(-c2cccc(F)c2)sc1C(=O)N[C@H]1CCCNC1 [AZD-7762]
[1]
  Kd: > 30 µM (inactive)
[2]
  Kd: 0.12 µM (active)
[3]
  Kd: 1.29 µM (active)
[4]
  Kd: > 30 µM (inactive)
[5]
  Kd: > 30 µM (inactive)
[6]
  Kd: > 30 µM (inactive)
[7]
  Kd: > 30 µM (inactive)
[9]
  Kd: > 30 µM (inactive)
Insulin receptor
  Kd: > 30 µM (inactive)

## Cc1cc(Nc2ncc(Cl)c(Nc3ccccc3S(=O)(=O)C(C)C)n2)c(OC(C)C)cc1C1CCNCC1 [CERITINIB]
[1]
  Kd: 0.635 µM (active)
[2]
  Kd: > 30 µM (inactive)
[3]
  Kd: > 30 µM (inactive)
[4]
  Kd: > 30 µM (inactive)
[5]
  Kd: > 30 µM (inactive)
[6]
  Kd: > 30 µM (inactive)
[7]
  Kd: > 30 µM (inactive)
[8]
  Kd: > 30 µM (inactive)
[9]
  Kd: > 30 µM (inactive)

## COc1c(OCCCN2CCOCC2)ccc2c1N=C(NC(=O)c1cnc(N)nc1)N1CCN=C21 [COPANLISIB]
[1]
  Kd: > 30 µM (inactive)
[3]
  Kd: > 30 µM (inactive)
[4]
  Kd: > 30 µM (inactive)
[5]
  Kd: 4.49 µM
[6]
  Kd: > 30 µM (inactive)
[7]
  Kd: > 30 µM (inactive)
[8]
  Kd: > 30 µM (inactive)
[9]
  Kd: > 30 µM (inactive)
Insulin receptor
  Kd: > 30 µM (inactive)

## O=C(Nc1nc2cccc(-c3ccc(CN4CCS(=O)(=O)CC4)cc3)n2n1)C1CC1 [FILGOTINIB]
[1]
  Kd: > 30 µM (inactive)
[3]
  Kd: > 30 µM (inactive)
[4]
  Kd: > 30 µM (inactive)
[5]
  Kd: > 30 µM (inactive)
[6]
  Kd: > 30 µM (inactive)
[7]
  Kd: > 30 µM (inactive)
[8]
  Kd: > 30 µM (inactive)
[9]
  Kd: > 30 µM (inactive)
Insulin receptor
  Kd: > 30 µM (inactive)

## CCn1cc(-c2ccnc3[nH]c(-c4cccc(CN(C)C)c4)cc23)c(-c2ccc(NC(=O)N(C)C)cc2)n1 [GSK-1070916]
[1]
  Kd: > 30 µM (inactive)
[3]
  Kd: > 30 µM (inactive)
[4]
  Kd: > 30 µM (inactive)
[5]
  Kd: > 30 µM (inactive)
[6]
  Kd: > 30 µM (inactive)
[8]
  Kd: > 30 µM (inactive)
[9]
  Kd: > 30 µM (inactive)

## CNC(=O)c1nn(C)c2c1C(C)(C)Cc1cnc(Nc3ccc(N4CCN(C)CC4)cc3)nc1-2 [MILCICLIB]
[1]
  Kd: > 30 µM (inactive)
[5]
  Kd: > 30 µM (inactive)
[6]
  Kd: > 30 µM (inactive)
[7]
  Kd: > 30 µM (inactive)
[8]
  Kd: > 30 µM (inactive)
[9]
  Kd: > 30 µM (inactive)
Insulin receptor
  Kd: > 30 µM (inactive)

## CCOc1cc2ncc(C#N)c(Nc3ccc(F)c(Cl)c3)c2cc1NC(=O)/C=C/CN(C)C [PELITINIB]
[1]
  Kd: > 30 µM (inactive)
[2]
  Kd: > 30 µM (inactive)
[4]
  Kd: > 30 µM (inactive)
[5]
  Kd: > 30 µM (inactive)
[6]
  Kd: > 30 µM (inactive)
[7]
  Kd: > 30 µM (inactive)
[8]
  Kd: > 30 µM (inactive)
[9]
  Kd: > 30 µM (inactive)
Insulin receptor
  Kd: > 30 µM (inactive)

## CN1CCN(CCOc2cc(OC3CCOCC3)c3c(Nc4c(Cl)ccc5c4OCO5)ncnc3c2)CC1 [SARACATINIB]
[1]
  Kd: > 30 µM (inactive)
[2]
  Kd: > 30 µM (inactive)
[4]
  Kd: > 30 µM (inactive)
[5]
  Kd: > 30 µM (inactive)
[6]
  Kd: > 30 µM (inactive)
[7]
  Kd: > 30 µM (inactive)
[8]
  Kd: > 30 µM (inactive)
[9]
  Kd: > 30 µM (inactive)
Insulin receptor
  Kd: > 30 µM (inactive)

## CO[C@H]1C[C@@H]2CC[C@@H](C)[C@@](O)(O2)C(=O)C(=O)N2CCCC[C@H]2C(=O)O[C@H]([C@H](C)C[C@@H]2CC[C@@H](O)[C@H](OC)C2)CC(=O)[C@H](C)/C=C(\C)[C@@H](O)[C@@H](OC)C(=O)[C@H](C)C[C@H](C)/C=C/C=C/C=C/1C [SIROLIMUS]
[1]
  Kd: > 30 µM (inactive)
[2]
  Kd: > 30 µM (inactive)
[3]
  Kd: > 30 µM (inactive)
[4]
  Kd: > 30 µM (inactive)
[5]
  Kd: > 30 µM (inactive)
[6]
  Kd: > 30 µM (inactive)
[7]
  Kd: > 30 µM (inactive)
[9]
  Kd: > 30 µM (inactive)
Insulin receptor
  Kd: > 30 µM (inactive)

## Cn1ncc(Cl)c1-c1cc(C(=O)N[C@H](CN)Cc2ccc(F)c(F)c2)oc1Cl [UPROSERTIB]
[2]
  Kd: > 30 µM (inactive)
[3]
  Kd: > 30 µM (inactive)
[5]
  Kd: > 30 µM (inactive)
[6]
  Kd: > 30 µM (inactive)
[7]
  Kd: > 30 µM (inactive)
[8]
  Kd: > 30 µM (inactive)
[9]
  Kd: > 30 µM (inactive)
Insulin receptor
  Kd: > 30 µM (inactive)

## CC(C)c1cc(CNc2nc(Nc3cc(C4CC4)[nH]n3)cc(N3CCN(C)CC3)n2)on1 [XL-228]
[1]
  Kd: > 30 µM (inactive)
[3]
  Kd: 0.166 µM (active)
[4]
  Kd: 1.44 µM (active)
[5]
  Kd: > 30 µM (inactive)
[6]
  Kd: > 30 µM (inactive)
[7]
  Kd: > 30 µM (inactive)
[8]
  Kd: > 30 µM (inactive)
[9]
  Kd: > 30 µM (inactive)
Insulin receptor
  Kd: 0.144 µM (active)
